Legend:
A549 = test: erlotinib sensitivity, apoptosis assay after 48 h; type: cell-based, human; conditions: NSCLC cell line A549, apoptosis assay after 48 h
Description: (§1) The lung cancer cell lines were analyzed for in vitro sensitivity to the EGFR-tyrosine kinase inhibitor erlotinib. Cell lines were designated as “resistant” or sensitive” based upon an empirically determined threshold.
(§2) The panel of NSCLC cell lines were separated into sensitive and resistant to erlotinib treatment using an apoptosis assay after 48 h as a measure (Balko et al., 2006). […] All cell lines were passaged as previously published and harvested after 2 days growth in serum-containing media (Balko et al., 2006). Lung cancer cell lines sensitive to erlotinib (H322 and HCC827) and resistant to erlotinib (H2122 and H820) and pancreatic cancer cell lines sensitive to erlotinib (Aspc-1 and Bxpc-3) and resistant to erlotinib (Mia PaCa-2 and Panc-1) were used for validation of the predictor, as previously described, again harvested after 2 days growth in serum-containing media (Tzeng et al., 2007).

H1650 = test: erlotinib sensitivity, apoptosis assay after 48 h; type: cell-based, human; conditions: NSCLC cell line H1650, apoptosis assay after 48 h
Description: as §1, §2

H1975 = test: erlotinib sensitivity, apoptosis assay after 48 h; type: cell-based, human; conditions: NSCLC cell line H1975, apoptosis assay after 48 h
Description: as §1, §2

H3255 = test: erlotinib sensitivity, apoptosis assay after 48 h; type: cell-based, human; conditions: NSCLC cell line H3255, apoptosis assay after 48 h
Description: as §1, §2

H358 = test: erlotinib sensitivity, apoptosis assay after 48 h; type: cell-based, human; conditions: NSCLC cell line H358, apoptosis assay after 48 h
Description: as §1, §2

H460 = test: erlotinib sensitivity, apoptosis assay after 48 h; type: cell-based, human; conditions: NSCLC cell line H460, apoptosis assay after 48 h
Description: as §1, §2

PC-9 = test: erlotinib sensitivity, apoptosis assay after 48 h; type: cell-based, human; conditions: NSCLC cell line PC-9, apoptosis assay after 48 h
Description: as §1, §2

UKY-29 = test: erlotinib sensitivity, apoptosis assay after 48 h; type: cell-based, human; conditions: NSCLC cell line UKY-29, apoptosis assay after 48 h
Description: as §1, §2

H2122 = test: erlotinib sensitivity of validation lung cancer cell line; type: cell-based, human; conditions: lung cancer cell line H2122, validation set
Description: as §2

H322 = test: as above; type: cell-based, human; conditions: lung cancer cell line H322, validation set
Description: as §2

H820 = test: as above; type: cell-based, human; conditions: lung cancer cell line H820, validation set
Description: as §2

HCC827 = test: as above; type: cell-based, human; conditions: lung cancer cell line HCC827, validation set
Description: as §2

Aspc-1 = conditions: pancreatic cancer cell line Aspc-1, validation set (Tzeng et al., 2007); cited from earlier work
Bxpc-3 = conditions: pancreatic cancer cell line Bxpc-3, validation set (Tzeng et al., 2007); cited from earlier work
Mia PaCa-2 = conditions: pancreatic cancer cell line Mia PaCa-2, validation set (Tzeng et al., 2007); cited from earlier work
Panc-1 = conditions: pancreatic cancer cell line Panc-1, validation set (Tzeng et al., 2007); cited from earlier work

For C#Cc1cccc(Nc2ncnc3cc(OCCOC)c(OCCOC)cc23)c1 [erlotinib], the “sensitivity to erlotinib treatment” value (A549) was “Resistant”, the “sensitivity to erlotinib treatment” value (H1650) was “sensitive” and the “sensitivity to erlotinib treatment” value (H1975) was “Resistant”. For the same compound, the “sensitivity to erlotinib treatment” value (H3255) was “sensitive”, the “sensitivity to erlotinib treatment” value (H358) was “sensitive” and the “sensitivity to erlotinib treatment” value (H460) was “Resistant”. For the same compound, the “sensitivity to erlotinib treatment” value (PC-9) was “sensitive”, the “sensitivity to erlotinib treatment” value (UKY-29) was “Resistant” and the sensitivity to erlotinib (H2122) was “resistant”. For the same compound, the sensitivity to erlotinib (H322) was “sensitive”, the sensitivity to erlotinib (H820) was “resistant” and the sensitivity to erlotinib (HCC827) was “sensitive”. For the same compound, the sensitivity to erlotinib (Aspc-1) was “sensitive”, the sensitivity to erlotinib (Bxpc-3) was “sensitive” and the sensitivity to erlotinib (Mia PaCa-2) was “resistant”. For the same compound, the sensitivity to erlotinib (Panc-1) was “resistant”.
